Experimental findings from US20090018163A1, “Substituted Heterocyclic Ethers and Their Use in CNS Disorders” (Bristol-Myers Squibb Company, priority 2007, published 2009) are described below.

Assay [1] concerns the target T1, hSERT (Homo sapiens, UniProt P31645).
T1 construct: expressed in transfected cells; host or cells: HEK-293 cells (crude membrane preparation)
Kind of assay: SERT radioligand binding assay. Here is the method: (§1) NK-1 Binding assay. Crude membrane suspensions were prepared for the NK1 and SERT radioligand binding assays from U373 cells or recombinant HEK-293 cells expressing hSERT, respectively. Cells were harvested from T-175 flasks as follows. The medium is removed from the flasks and the cells rinsed with HBSS without Ca and without Mg. The cells are then incubated for 5-10 minutes in 10 mM Tris-Cl, pH 7.5, 5 mM EDTA before the cells are lifted with a combination of pipetting and scraping, as needed. To prepare membranes, the cell suspension is collected into centrifuge bottles and homogenized for 30 seconds with a Polytron homogenizer. The suspension is centrifuged for 30 min @ 32,000×g, 4° C., then the supernatant is decanted and the pellet resuspended and homogenized in 50 mM Tris-Cl, pH 7.5, 1 mM EDTA for 10 seconds. The suspension is then centrifuged again for 30 min @ 32,000×g, 4° C. The supernatant is decanted and the pellet resuspended in 50 mM Tris-Cl, pH 7.5, 1 mM EDTA and briefly homogenized. A Bradford assay (Bio-rad) is performed and the membrane preparation diluted to 2 mg/ml with 50 mM Tris-Cl, pH 7.5, 1 mM EDTA. Aliquots are prepared, and then frozen and stored at −80° C.
SERT radioligand binding assay. Compounds are dissolved in 100% DMSO at a concentration 100× the desired highest assay concentration, serially diluted 1:3 in 100% DMSO, and 0.4 ul/well of each solution is dispensed to a Nunc polypropylene, round bottom, 384 well plate. 100% inhibition is defined with 0.4 ul/well of 1 mM fluoxetine (Sigma F-132) dissolved in DMSO. 20 ul/well of a 2×HEK-hSERT membrane preparation (15 ug/ml in 50 mM Tris-Cl, pH 7.5, 120 mM NaCl, 5 mM KCl) and 20 ul/well of a 2× radioligand solution (520 pM [^125I]RTI-55 (Perkin-Elmer NEX-272) in 50 mM Tris-Cl, pH 7.5, 120 mM NaCl, 5 mM KCl) are added to each well and the reaction incubated for 1 hour at room temperature. The contents of the assay plate are then transferred to a Millipore MultiscreenHTS GF/B filter plate which has been pretreated with 0.5% PEI for at least one hour. The plate is vacuum filtered and washed with 7 washes of 100 ul/well of 50 mM Tris-Cl, pH 7.5, 120 mM NaCl, 5 mM KCl chilled to 4° C. The filtration and washing is completed in less than 90 s. The plates are air-dried overnight, 12 ul/well of MicroScint scintillation fluid added, and the plates counted in a Trilux.
(§2) Data analysis. The raw data are normalized to percent inhibition using control wells defining 0% (DMSO only) and 100% (selective inhibitor) inhibition which are run on each plate. Each plate is run in triplicate, and the concentration response curve thus generated is fit using the four-parameter dose response equation, Y=Bottom+(Top-Bottom)/(1+10̂((LogIC50−X)*HillSlope)) in order to determine the IC50 value for each compound. The radioligand concentration chosen for each assay corresponds to the Kd concentration determined through saturation binding analysis for each assay.

Assay [2] concerns the target T2, NK-1 (Homo sapiens, UniProt P25103).
T2 construct: 30 ul/well of a 2×U373 membrane preparation; endogenous in cells; host or cells: U373 cells (crude membrane preparation)
Kind of assay: NK1 radioligand binding assay. The following applies: U373 membrane preparation, [125I]Substance P. Here is the method:
as §1
NK1 radioligand binding assay. Compounds are dissolved in 100% DMSO at a concentration 100× the desired highest assay concentration, serially diluted 1:3 in 100% DMSO, and 0.6 ul/well of each solution is dispensed to a Nunc polypropylene, round bottom, 384 well plate. 100% inhibition is defined with 0.6 ul/well of 1 mM L-733,060 (Sigma L-137) dissolved in DMSO. 30 ul/well of a 2×U373 membrane preparation (267 ug/ml in 100 mM Tris-Cl, pH 7.5, 6 mM MgCl2, 0.2% (v/v) Sigma mammalian protease inhibitor cocktail (Sigma P-8340), and 4 ug/ml chymostatin, Sigma C-7268) and 30 ul/well of a 2× radioligand solution (400 pM [^125I]Substance P (Perkin Elmer NEX-190) in 1% (w/v) BSA (Sigma A-2153), 0.1 mg/ml bacitracin, Sigma B-0125) are added to the well and the reaction incubated for 1 hour at room temperature. The contents of the assay plate are then transferred to a Millipore MultiscreenHTS GF/B filter plate which has been pretreated with 0.5% PEI for at least one hour. The plate is vacuum filtered and washed with 7 washes of 100 ul/well of 20 mM Tris-Cl, pH 7.5, 0.5% (w/v) BSA chilled to 4° C. The filtration and washing is completed in less than 90 s. The plates are air-dried overnight, 12 ul/well of MicroScint scintillation fluid added, and the plates counted in a Trilux.
as §2

Where [3] appears, read: HEK-hSERT membrane preparation, [125I]RTI-55, Table 1, read-out: SERT IC50.
Setting [4] is: HEK-hSERT membrane preparation, [125I]RTI-55, Table 1a, single enantiomers, read-out: SERT IC50.

Read-outs that look alike come from different tables or passages of the source.

T1 sequence (P31645 whole entry): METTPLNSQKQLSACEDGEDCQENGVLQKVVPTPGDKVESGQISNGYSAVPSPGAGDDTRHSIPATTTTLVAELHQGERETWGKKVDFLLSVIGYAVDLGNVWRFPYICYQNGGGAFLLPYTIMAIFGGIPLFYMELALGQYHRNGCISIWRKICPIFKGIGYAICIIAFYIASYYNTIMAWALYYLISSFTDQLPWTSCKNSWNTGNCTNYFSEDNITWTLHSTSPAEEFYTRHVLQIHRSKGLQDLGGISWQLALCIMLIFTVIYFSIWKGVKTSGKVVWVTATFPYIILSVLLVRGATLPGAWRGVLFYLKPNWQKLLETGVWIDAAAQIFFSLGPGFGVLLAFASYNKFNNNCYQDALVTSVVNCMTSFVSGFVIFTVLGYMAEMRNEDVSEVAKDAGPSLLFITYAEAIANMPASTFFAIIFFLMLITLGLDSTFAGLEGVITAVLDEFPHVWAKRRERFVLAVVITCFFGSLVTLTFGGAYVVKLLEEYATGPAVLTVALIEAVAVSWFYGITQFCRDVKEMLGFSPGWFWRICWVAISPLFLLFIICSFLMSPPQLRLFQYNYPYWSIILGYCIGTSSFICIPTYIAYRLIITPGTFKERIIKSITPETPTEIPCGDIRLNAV
T2 sequence (P25103 whole entry): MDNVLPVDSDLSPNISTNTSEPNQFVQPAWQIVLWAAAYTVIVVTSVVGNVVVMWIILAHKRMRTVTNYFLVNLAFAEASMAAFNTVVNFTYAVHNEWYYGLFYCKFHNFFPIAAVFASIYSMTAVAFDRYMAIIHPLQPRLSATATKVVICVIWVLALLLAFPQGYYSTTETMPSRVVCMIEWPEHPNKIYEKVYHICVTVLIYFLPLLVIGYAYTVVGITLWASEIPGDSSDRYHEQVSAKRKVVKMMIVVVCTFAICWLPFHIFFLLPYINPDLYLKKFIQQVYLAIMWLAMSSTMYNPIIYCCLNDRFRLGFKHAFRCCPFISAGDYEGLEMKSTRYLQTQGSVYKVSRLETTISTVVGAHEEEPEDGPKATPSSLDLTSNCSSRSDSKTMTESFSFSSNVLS

In the case of `CN(C)c1cc(COCC2(c3ccccc3)CCNCC2)nc2cc(C(F)(F)F)ccc12` [Example 18, N,N-dimethyl-2-(((4-phenylpiperidin-4-yl)methoxy)methyl)-7-(trifluoromethyl)quinolin-4-amine], the IC50 in assay [1] (setting [3]) was 0.01 to 100 nM; in assay [2] (Table 1), above 300 nM.
For `Cc1ccc2cc(COCC3(c4ccccc4)CCN(C)CC3)ccc2n1` [Example 10] the same measures were 0.01 to 100 nM and above 300 nM.
The matching figures for `CN1CCC(COCc2ccc3ccccc3n2)(c2ccccc2)CC1` [Example 6]: 0.01 to 100 nM and above 300 nM.
Take `CC(OCC1(c2ccccc2)CCNCC1)c1cc(C(F)(F)F)cc2cccnc12` (stereo not drawn) [Example 35]: the IC50 in assay [1] (setting [3]) and in assay [2] (Table 1) was 0.01 to 100 nM each time.
As for `Cc1cc(COCC2(c3ccccc3)CCNCC2)c2ccccc2n1` [Example 1, 2-methyl-4-(((4-phenylpiperidine-4-yl)methoxy)methyl)quinoline], the IC50 was 0.01 to 100 nM in assay [1] (setting [3]) and above 300 nM in assay [2] (Table 1).
For `COc1ccc2nc(COCC3(c4ccccc4)CCN(C)CC3)ccc2c1` [Example 12], the concentration for half-maximal inhibition (IC50) was 0.01 to 100 nM in assay [1] and above 300 nM in assay [2] (Table 1).
For `CC(OCC1(c2ccc(F)cc2)CCN(C)CC1)c1cc(C(F)(F)F)cc2cccnc12` (single isomer, unassigned) [Example 70], the IC50 in assay [1] (setting [4]) lay within 0.01 to 100 nM; in assay [2] (Table 1a, single enantiomers) it was 0.01 to 100 nM.
In the case of `Cc1cc(COCC2(c3ccccc3)CCN(C)CC2)nc2ccccc12` [Example 4], the IC50 in assay [1] was 0.01 to 100 nM; in assay [2] (Table 1), 100 to 300 nM.
For `Cc1ccc2nc(COCC3(c4ccccc4)CCNCC3)cc(C)c2c1` [Example 19, 4,6-dimethyl-2-(((4-phenylpiperidin-4-yl)methoxy)methyl)quinoline], the IC50 was 0.01 to 100 nM in assay [1] (setting [3]) and above 300 nM in assay [2] (Table 1).
For `COc1ccc2nc(COCC3(c4ccccc4)CCNCC3)ccc2c1` [Example 11] the same measures were 0.01 to 100 nM and above 300 nM.
In the case of `CC(OCC1(c2ccccc2)CCN(C)CC1)c1cc(C(F)(F)F)cc2cccnc12` (single isomer, unassigned) [Example 72], the IC50 in assay [1] was 0.01 to 100 nM; in assay [2] (Table 1a, single enantiomers), above 300 nM.
For the molecule `Cc1cc(C(C)OCC2(c3ccc(F)cc3)CCN(C)CC2)c2nc(N(C)C)ccc2c1` (stereo not drawn) [Example 51], the figures for the IC50 in assay [1] (setting [3]) and in assay [2] (Table 1) were 100 to 300 nM and 0.01 to 100 nM, respectively.
For `N#Cc1ccc(-c2cc(COCC3(c4ccccc4)CCNCC3)c3ncccc3c2)cc1` [Example 24] the same measures were 0.01 to 100 nM and above 300 nM.
The matching figures for `Cc1ccc2c(C)cc(COCC3(c4ccccc4)CCNCC3)nc2c1` [Example 20]: 0.01 to 100 nM and above 300 nM.
For `CC(OCC1(c2ccccc2)CCN(C)CC1)c1cc(C(F)(F)F)cc2cccnc12` (stereo not drawn) [Example 36] the same measures were 0.01 to 100 nM and 0.01 to 100 nM.
`c1ccc(C2(COCc3cccc4cccnc34)CCNCC2)cc1` [Example 31, 8-(((4-phenylpiperidin-4-yl)methoxy)methyl)quinoline]: the results for the 50% inhibitory concentration (IC50) in assay [1] (setting [3]) and in assay [2] (Table 1) were 0.01 to 100 nM and above 300 nM, respectively.
With `c1ccc(C2(COCc3ccc4ccccc4n3)CCNCC2)cc1` [Example 5], the 50% inhibitory concentration (IC50) in assay [1] (setting [3]) was 0.01 to 100 nM; in assay [2] (Table 1) it was above 300 nM.
The matching figures for `Cc1cc(C(C)OCC2(c3ccc(F)cc3)CCN(C)CC2)c2ncccc2c1` (stereo not drawn) [Example 40]: 0.01 to 100 nM and 0.01 to 100 nM.
The matching figures for `FC(F)(F)c1ccc2ccc(COCC3(c4ccccc4)CCNCC3)nc2c1` [Example 46, 2-(((4-phenylpiperidin-4-yl)methoxy)methyl)-7-(trifluoromethyl)quinoline]: 0.01 to 100 nM and above 300 nM.
On to `CC(OCC1(c2ccccc2)CCN(C)CC1)c1cc(C(F)(F)F)cc2cccnc12` (single isomer, unassigned) [Example 73], for which the IC50 in assay [1] (setting [4]) lay in the range of 0.01 to 100 nM; in assay [2] (Table 1a, single enantiomers) it was 0.01 to 100 nM.
As to `Cc1cc(C(C)OCC2(c3ccccc3)CCNCC2)c2ncccc2c1` (stereo not drawn) [Example 41], the half-inhibitory concentration (IC50) in assay [1] (setting [3]) and in assay [2] (Table 1) was 0.01 to 100 nM throughout.
For `Cc1cc(C(C)OCC2(c3ccc(F)cc3F)CCN(C)CC2)c2ncccc2c1` (stereo not drawn) [Example 43], the IC50 in assay [1] (setting [3]) and in assay [2] (Table 1) was 0.01 to 100 nM throughout.
As for `Cc1cc(C(C)OCC2(c3ccc(F)cc3)CCN(C)CC2)c2ncccc2c1` (single isomer, unassigned) [Example 75], the half-inhibitory concentration (IC50) was 0.01 to 100 nM in assay [1] and above 300 nM in assay [2] (Table 1a, single enantiomers).
As to `Cc1cc(C(C)OCC2(c3ccc(F)cc3)CCNCC2)c2ncccc2c1` (stereo not drawn) [Example 39], the IC50 in assay [1] (setting [3]) and in assay [2] (Table 1) was 0.01 to 100 nM throughout.
Take `Cc1cc(C(C)OCC2(c3ccccc3)CCN(C)CC2)c2ncccc2c1` (stereo not drawn) [Example 42]: the IC50 in assay [1] (setting [3]) and in assay [2] (Table 1) was 0.01 to 100 nM each time.
Turning to `COc1ccc2cc(C)cc(C(C)OCC3(c4ccc(F)cc4)CCN(C)CC3)c2n1` (stereo not drawn) [Example 50], the IC50 in assay [1] (setting [3]) and in assay [2] (Table 1) was 0.01 to 100 nM throughout.
For `Cc1cc(COCC2(c3ccccc3)CCNCC2)nc2ccccc12` [Example 3], the half-inhibitory concentration (IC50) was in the range of 0.01 to 100 nM in assay [1] (setting [3]) and 100 to 300 nM in assay [2] (Table 1).
The matching figures for `FC(F)(F)c1ccnc2ccc(COCC3(c4ccccc4)CCNCC3)cc12` [Example 47, 6-(((4-phenylpiperidin-4-yl)methoxy)methyl)-4-(trifluoromethyl)quinoline]: 0.01 to 100 nM and above 300 nM.
With `N#Cc1ccc(-c2cc(COCC3(c4ccccc4)CCNCC3)nc3ccccc23)cc1` [Example 15, 4-(2-(((4-phenylpiperidin-4-yl)methoxy)methyl)quinolin-4-yl)benzonitrile], the half-maximal inhibitory concentration (IC50) is 0.01 to 100 nM in assay [1] (setting [3]) and above 300 nM in assay [2] (Table 1).
Take `CC(OCC1(c2ccc(F)cc2)CCN(C)CC1)c1cc(Br)cc2cccnc12` (single isomer, unassigned) [Example 78]: the IC50 in assay [1] fell in the range of 0.01 to 100 nM; in assay [2] (Table 1a, single enantiomers), 100 to 300 nM.
For the molecule `CC(OCC1(c2ccccc2)CCNCC1)c1cc(C(F)(F)F)cc2cccnc12` (single isomer, unassigned) [Example 71], the half-inhibitory concentration (IC50) lay in the range of 0.01 to 100 nM in assay [1] (setting [4]) and 0.01 to 100 nM in assay [2] (Table 1a, single enantiomers).
With `CN1CCC(COCc2cc(N)c3ccccc3n2)(c2ccccc2)CC1` [Example 8], the IC50 in assay [1] was 0.01 to 100 nM; in assay [2] (Table 1) it was above 300 nM.
For `Brc1cc(COCC2(c3ccccc3)CCNCC2)nc2ccccc12` [Example 13, 4-bromo-2-(((4-phenylpiperidin-4-yl)methoxy)methyl)quinoline], the IC50 lay within 0.01 to 100 nM in assay [1] (setting [3]) and 100 to 300 nM in assay [2] (Table 1).
